Source: patent US10351572B2, “Aryl hydrocarbon receptor antagonists and uses thereof” (Magenta Therapeutics Inc., priority 2017, dated 2019)
“And” between values parts separate entries of the source, which are not always exact repeats. Equal values may be shown once. Read-outs that look alike come from different tables or passages of the source.

What was measured:
[1] = molecular target: T1, aryl hydrocarbon receptor (Homo sapiens, UniProt P35869); assay: Aryl hydrocarbon receptor-driven luciferase reporter in transiently transfected HepG2 cells, Example 3; assay type: cell-based; settings: absence or presence of VAF347 (80 nM); six hours after plating
T1 construct: HepG2 cells transiently transfected with the pGudLuc6.1 plasmid were thawed and 25,000 cells were plated per well; endogenous in cells; host or cells: HepG2
T1 sequence (P35869 11-848): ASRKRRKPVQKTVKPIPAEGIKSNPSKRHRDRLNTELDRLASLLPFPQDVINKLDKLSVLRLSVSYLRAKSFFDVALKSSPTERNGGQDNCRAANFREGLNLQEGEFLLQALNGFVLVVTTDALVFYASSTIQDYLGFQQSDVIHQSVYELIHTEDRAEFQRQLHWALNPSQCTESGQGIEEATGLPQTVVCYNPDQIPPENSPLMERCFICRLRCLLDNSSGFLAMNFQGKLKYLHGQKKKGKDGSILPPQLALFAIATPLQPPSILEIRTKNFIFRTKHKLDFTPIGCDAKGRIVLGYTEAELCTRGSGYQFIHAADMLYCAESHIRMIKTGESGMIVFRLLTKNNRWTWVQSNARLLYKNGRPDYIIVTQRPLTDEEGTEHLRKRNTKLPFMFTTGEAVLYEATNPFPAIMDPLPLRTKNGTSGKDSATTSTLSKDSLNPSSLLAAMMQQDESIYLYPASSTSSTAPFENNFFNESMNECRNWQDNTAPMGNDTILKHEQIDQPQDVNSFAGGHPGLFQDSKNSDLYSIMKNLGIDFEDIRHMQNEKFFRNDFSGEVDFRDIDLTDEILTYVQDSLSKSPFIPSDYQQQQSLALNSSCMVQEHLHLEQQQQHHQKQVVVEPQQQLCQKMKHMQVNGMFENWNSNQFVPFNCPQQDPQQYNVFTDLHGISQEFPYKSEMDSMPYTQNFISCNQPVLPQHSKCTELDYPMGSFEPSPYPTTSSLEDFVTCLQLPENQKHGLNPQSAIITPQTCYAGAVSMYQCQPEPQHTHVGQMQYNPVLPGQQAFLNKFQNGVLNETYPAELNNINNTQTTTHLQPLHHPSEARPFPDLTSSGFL
Method: To determine the ability of compounds (5) and (16) to inhibit the activity of the aryl hydrocarbon receptor and to induce the proliferation of hematopoietic stem cells, a series of HSC expansion experiments were conducted. In the first experiment, compounds (5) and (16) were assessed for their capacity to attenuate aryl hydrocarbon receptor signaling. To this end, HepG2 hepatocytes were transiently transfected with a luciferase reporter construct under the control of a promoter responsive to aryl hydrocarbon receptor signal transduction. The cells were plated at a density of 25,000 cells per well in a microtiter plate. The HepG2 cells were immediately treated with compound (5) or (16) in the absence (FIG. 1) or presence (FIG. 2) of the aryl hydrocarbon receptor agonist, VAF347 (80 nM). Luciferase activity was subsequently analyzed six hours after plating.

[2] = tested on: mononuclear peripheral blood cells enriched in CD34+ cells; assay: Proliferation of hematopoietic stem cells, percentage of CD34+ cells after seven days, Example 3; assay type: cell-based; settings: for potency of hematopoietic stem cell expansion compared with SR1: compared with potency reported for SR1; for hematopoietic stem cell growth (percentage of CD34+ cells): seven days following plating
Method: To assess the ability of compounds (5) and (16) to induce the proliferation of hematopoietic stem cells, a population of mononuclear peripheral blood cells enriched in CD34+ cells were plated at a density of 2,350 cells per well (50 μL) in a microtiter plate in the presence of each compound. The percentage of CD34+ hematopoietic stem cells was assessed seven days following the initial plating. […] The compounds of formula (I) and (II) described herein can thus be used to expand hematopoietic stem cells ex vivo in order to obtain sufficient quantities of such cells for in vivo applications.

[3] = tested on: mobilized peripheral blood CD34+ cells; assay: CD34+ hematopoietic stem/progenitor cell expansion (CD34+ frequency and number), Example 9; assay type: cell-based; settings: dose response beginning at 10 pM, day 7, flow cytometry
Method: To determine the activity of a scale-up batch of Compound (24), individual enantiomers, and two derivatives Compound (27) and Compound (28) were evaluated for i) the ability to expand CD34+ hematopoietic stem/progenitor cells and ii) AHR antagonist activity. The compounds were compared to control AHR antagonist SR1, an additional control AHR antagonist, and stored sample of Compound (24) CD34+ Frequency and Number
Methods—mobilized peripheral blood CD34+ cells were cultured in the presence of compound, in dose response beginning at 10 pM. CD34+ cell frequency and number was assessed at day 7 by flow cytometry. All synthesized compounds show equivalent expansion capabilities if not greater than SR1.

[4] = molecular target: T2, AHR (Homo sapiens, UniProt P35869); assay: AHR antagonist assay, HepG2 cells transiently transfected with pGudLuc6.1 luciferase plasmid, Example 9; assay type: cell-based; settings: luciferase activity 24 hours post-culture
T2 construct: HepG2 cells transiently transfected with the pGudLuc6.1 plasmid were thawed and 25,000 cells were plated per well; endogenous in cells; host or cells: HepG2
T2 sequence (P35869 11-848): T1 sequence (P35869 11-848)
Method: Methods—HepG2 cells transiently transfected with the pGudLuc6.1 plasmid were thawed and 25,000 cells were plated per well and immediately treated the AHR agonist VAF347 (fixed at 40 nM) and/or the indicated AHR antagonists. Luciferase activity was measured 24 hours post-culture, corresponding to endogenous AHR antagonist activity (without VAF347, FIG. 14) or in the presence of VAF347 (FIG. 15). All synthesized compounds show equivalent AHR antagonist activity if not greater than SR1.

[5] = tested on: NSG mice; assay: Transplantation into NSG mice of human hematopoietic stem cells expanded ex vivo with AHR antagonist; blood chimerism and brain microglia engraftment, Example 5; assay type: in vivo; settings: NSG mice transplanted with cord blood CD34+ cells expanded 10 days with 500 nM AHR antagonist
Method: To investigate the ability of hematopoietic stem cells to differentiate into microglial cells and subsequently engraft in central nervous system tissue, such as the brain of a hematopoietic stem cell transplant recipient, a series of experiments were conducted in which human hematopoietic stem cells were first expanded ex vivo in the presence of an aryl hydrocarbon receptor antagonist (compound (16) or compound (24)) and were subsequently transplanted into NSG mice, in accordance with the scheme shown in FIG. 4. The frequency of human CD45+ cells in the peripheral blood of the mice was then determined, as well as the profile of microglial cells in the brain tissue using flow cytometry and immunohistochemistry techniques. […]
At the time of thaw, an equal number of cells to the starting cell cultures were injected into NSG mice, sublethally irradiated (200 cGy) 24 hours prior to injection. […] Peripheral blood was harvested by retro-orbital bleeding at approximately weeks 4 and 8 or by cardiac puncture at week 12 and chimerism was assessed by flow cytometry using antibodies against hCD45, mCD45, hCD33, hCD19, hCD3 and a viability dye. […]
Embedded brains were sectioned at approximately 5 microns and stained with Ku80 (brown) and Iba-1 (red) primary antibodies). Mouse brains were analyzed from each transplanted mouse and five levels were analyzed each. […]

[6] = VAF347 fixed at 40 nM, read-out: AHR Antagonist Activity in the Presence of VAF347 EC50
[7] = without VAF347, read-out: Endogenous AHR Antagonist Activity EC50

Structure (SMILES)	suppression of aryl hydrocarbon receptor activity (luciferase) [1]	potency of hematopoietic stem cell expansion compared with SR1 [2]	hematopoietic stem cell growth (percentage of CD34+ cells) [2]	EC50 ([3]; 168 h) [nM]	EC50 [4, 6]	EC50 [4, 7] [nM]	EC50 [3] [nM]	frequency of hCD45+ cells in peripheral blood [5]	engraftment of hCD45+CD11b+ microglial cells in the brain ([5]; brains at 3 months)
CCC(C)c1cnc2c(NCCc3c[nH]c4ccccc34)cc(-c3cncc(F)c3)cn12 (centres unmarked) [Compound (5)]	capable of suppressing aryl hydrocarbon receptor activity even in the presence of the activator VAF347	potency greater than that reported for StemRegeninl (SR1)	capable of potentiating hematopoietic stem cell growth in a dose-dependent manner						
COCCC(C)c1cnc2c(NCCc3c[nH]c4ccccc34)nc(-c3cncc(F)c3)cn12 (racemic) [Compound (24), 6-(5-fluoropyridin-3-yl)-N-[2-(1H-indol-3-yl)ethyl]-3-(3-methoxy-1-methylpropyl)imidazo[1,2-a]pyrazin-8-amine]				7	13 nM and 11 nM	1			
COCCC(C)c1cnc2c(NCCc3c[nH]c4ccccc34)nc(-c3cncc(F)c3)cn12 (single isomer, unassigned) [Compound (24) - Enantiomer Peak 2, 6-(5-fluoropyridin-3-yl)-N-[2-(1H-indol-3-yl)ethyl]-3-(3-methoxy-1-methylpropyl)imidazo[1,2-a]pyrazin-8-amine]					6 nM	0.4	4		
COCCCC(C)c1cnc2c(NCCc3c[nH]c4ccccc34)nc(-c3cncc(F)c3)cn12 (centres unmarked) [Compound (27), 6-(5-fluoropyridin-3-yl)-N-[2-(1H-indol-3-yl)ethyl]-3-(4-methoxy-1-methylbutyl)imidazo[1,2-a]pyrazin-8-amine]				8	9 nM	2			
CCOCCC(C)c1cnc2c(NCCc3c[nH]c4ccccc34)nc(-c3cncc(F)c3)cn12 (centres unmarked) [Compound (28), 3-(3-ethoxy-1-methylpropyl)-6-(5-fluoropyridin-3-yl)-N-[2-(1H-indol-3-yl)ethyl]imidazo[1,2-a]pyrazin-8-amine]				10	30 nM	2			
CC(C)n1cnc2c(NCCc3ccc(O)cc3)nc(-c3csc4ccccc34)nc21 [SR1, reference compound]					193 nM	33	112		
CCC(C)c1cnc2c(NCCc3c[nH]c4ccccc34)nc(-c3cncc(F)c3)cn12 (centres unmarked) [Compound (16)]	capable of suppressing aryl hydrocarbon receptor activity even in the presence of the activator VAF347	potency greater than that reported for StemRegeninl (SR1)	capable of potentiating hematopoietic stem cell growth in a dose-dependent manner					increased frequency of hCD45+ cells in peripheral blood	increased engraftment of hCD45+CD11b+ microglial cells in the brain
COCCC(C)c1cnc2c(NCCc3c[nH]c4ccccc34)nc(-c3cncc(F)c3)cn12 (single isomer, unassigned) [Compound (24) - Enantiomer Peak 1, 6-(5-fluoropyridin-3-yl)-N-[2-(1H-indol-3-yl)ethyl]-3-(3-methoxy-1-methylpropyl)imidazo[1,2-a]pyrazin-8-amine]					12 nM	1	11		
